“And” between values parts separate entries of the source, which are not always exact repeats. Equal values may be shown once. “Also recorded” adds a separate entry of the source.
Legend:
[1] = tested on: hypothalamus–pituitary–adrenal axis hormones; assay: Hormones of the HPA axis: difference from baseline; assay type: in vivo, human
Description: (§1) Safety and tolerability of BI 187004 were assessed in a descriptive way using the following investigations: recording of adverse events, clinical laboratory parameters (haematology, coagulation, enzymes, substrates, electrolytes, hormones, and urinalysis), vital signs (blood pressure, puls rate), 12-lead ECG (electrocardiogram) with special attention to QTc prolongation, and physical examination (occurrence of findings).

[2] = tested on: healthy male volunteers with overweight or obesity; assay: Safety and tolerability (adverse events, clinical laboratory, vital signs, ECG); assay type: in vivo, human
Description: as §1

HPA axis = assay: Total urinary corticosteroid excretion (aTHF + THF + UFF + UFE + THE); conditions: for Total corticosteroids 0 – 24h (day 1) gMean (gCV [%]) / Total corticosteroids % of baseline 0 – 24h (day 1)/-24 – 0h (day -1) gMean (gCV): urine; for Total corticosteroids placebo corrected % change from baseline, adjusted gMean (90% CI) / Total corticosteroids placebo corrected % of baseline, adjusted gMean (90% CI): urine 0–24 h, ANCOVA
Description: The urinary samples for determination of urinary free cortisol (UFF), urinary free cortisone (UFE), urinary total cortisol (UTF), urinary total cortisone (UTE), and their metabolites 5alpha- or allo-tetrahydrocortisol (aTHF), 5beta-tetrahydrocortisol (THF), and tetrahydrocortisone (THE) were analyzed using a validated LC–MS/MS method.
The placebo corrected percentage change from baseline of the data shown in Supplementary Table 1 and 2 was analyzed statistically by an ANCOVA model with baseline as covariate on the logarithmic scale.

N#Cc1ccc2c(c1)[C@H]1CCCN(C(=O)c3ccc4[nH]cnc4c3)[C@H]1C2 [BI 187004]
SHBG mean difference from baseline ([1]; 160 mg single oral dose, 24:00): 1.9 nmol/L | Total Testosterone mean difference from baseline ([1]; 160 mg single oral dose, 24:00): 1.0 nmol/L | ACTH mean difference from baseline ([1]; 160 mg single oral dose, 96:00): 0.05 pmol/L | Androstenedione mean difference from baseline ([1]; 160 mg single oral dose, 96:00): 1.5 nmol/L | Cortisol mean difference from baseline ([1]; 160 mg single oral dose, 96:00): -69.9 nmol/L | DHEA-s mean difference from baseline ([1]; 160 mg single oral dose, 96:00): 2.2 µmol/L | SHBG mean difference from baseline ([1]; 160 mg single oral dose, 96:00): -0.8 nmol/L | Total Testosterone mean difference from baseline ([1]; 160 mg single oral dose, 96:00): 2.4 nmol/L | ACTH mean difference from baseline ([1]; 240 mg single oral dose, 24:00): 0.87 pmol/L | Androstenedione mean difference from baseline ([1]; 240 mg single oral dose, 24:00): 5.0 nmol/L | Cortisol mean difference from baseline ([1]; 240 mg single oral dose, 24:00): -7.3 nmol/L | DHEA-s mean difference from baseline ([1]; 240 mg single oral dose, 24:00): 1.6 µmol/L | SHBG mean difference from baseline ([1]; 240 mg single oral dose, 24:00): 2.3 nmol/L | Total Testosterone mean difference from baseline ([1]; 240 mg single oral dose, 24:00): -2.8 nmol/L | ACTH mean difference from baseline ([1]; 240 mg single oral dose, 96:00): -0.27 pmol/L | Androstenedione mean difference from baseline ([1]; 240 mg single oral dose, 96:00): 2.7 nmol/L | Cortisol mean difference from baseline ([1]; 240 mg single oral dose, 96:00): -5.1 nmol/L | DHEA-s mean difference from baseline ([1]; 240 mg single oral dose, 96:00): 2.3 µmol/L | SHBG mean difference from baseline ([1]; 240 mg single oral dose, 96:00): 2.5 nmol/L | Total Testosterone mean difference from baseline ([1]; 240 mg single oral dose, 96:00): -2.4 nmol/L | ACTH mean difference from baseline ([1]; 360 mg single oral dose, 24:00): 1.30 pmol/L | Androstenedione mean difference from baseline ([1]; 360 mg single oral dose, 24:00): 3.2 nmol/L | Cortisol mean difference from baseline ([1]; 360 mg single oral dose, 24:00): -40.0 nmol/L | DHEA-s mean difference from baseline ([1]; 360 mg single oral dose, 24:00): 1.2 µmol/L | SHBG mean difference from baseline ([1]; 360 mg single oral dose, 24:00): 0.9 nmol/L | Total Testosterone mean difference from baseline ([1]; 360 mg single oral dose, 24:00): -0.3 nmol/L | ACTH mean difference from baseline ([1]; 360 mg single oral dose, 96:00): 0.38 pmol/L | Androstenedione mean difference from baseline ([1]; 360 mg single oral dose, 96:00): -0.3 nmol/L | Cortisol mean difference from baseline ([1]; 360 mg single oral dose, 96:00): -132.9 nmol/L | DHEA-s mean difference from baseline ([1]; 360 mg single oral dose, 96:00): 1.6 µmol/L | SHBG mean difference from baseline ([1]; 360 mg single oral dose, 96:00): -2.2 nmol/L | Total Testosterone mean difference from baseline ([1]; 360 mg single oral dose, 96:00): 0.7 nmol/L | Incidence of headache ([2]; 3 out of 54 subjects receiving BI 187004): 5.6% | Incidence of drug-related adverse events ([2]; all 9 BI 187004 dose groups (9 subjects)): 16.7% | Subjects reporting at least 1 adverse event ([2]; all BI 187004 dose groups (15 subjects)): 27.8% | Clinical laboratory evaluations, vital signs, ECG findings ([2]; single oral doses 2.5–360 mg): No clinically relevant deviations; also recorded: no notable findings | Deaths, AEs leading to discontinuation, serious AEs ([2]; single oral doses 2.5–360 mg): no serious AEs | Hypoglycemic episodes ([2]; single oral doses 2.5–360 mg): No hypoglycemic episodes | Safety and tolerability ([2]; single oral doses 2.5–360 mg): well tolerated and safe; also recorded: safe and well tolerated | Total corticosteroids 0 – 24h (day 1) gMean (gCV [%]) (HPA axis; 2.5 mg): 16067.0 (18.128) μg | Total corticosteroids % of baseline 0 – 24h (day 1)/-24 – 0h (day -1) gMean (gCV) (HPA axis; 2.5 mg): 161.3 (44.4) % | Total corticosteroids placebo corrected % change from baseline, adjusted gMean (90% CI) (HPA axis; 2.5 mg): 30.3 (11.5, 52.2) 0.0062% | Total corticosteroids placebo corrected % of baseline, adjusted gMean (90% CI) (HPA axis; 2.5 mg): 130.3% and 130.3 (111.5, 152.2) % | Total corticosteroids 0 – 24h (day 1) gMean (gCV [%]) (HPA axis; 5 mg): 24324.0 (23.620) μg | Total corticosteroids % of baseline 0 – 24h (day 1)/-24 – 0h (day -1) gMean (gCV) (HPA axis; 5 mg): 179.9 (21.8) % | Total corticosteroids placebo corrected % change from baseline, adjusted gMean (90% CI) (HPA axis; 5 mg): 72.1 (47.7, 100.6) <0.0001% | Total corticosteroids placebo corrected % of baseline, adjusted gMean (90% CI) (HPA axis; 5 mg): 172.1 (147.7, 200.6) % | Total corticosteroids 0 – 24h (day 1) gMean (gCV [%]) (HPA axis; 10 mg): 23965.4 (24.142) μg | Total corticosteroids % of baseline 0 – 24h (day 1)/-24 – 0h (day -1) gMean (gCV) (HPA axis; 10 mg): 178.1 (24.5) % | Total corticosteroids placebo corrected % change from baseline, adjusted gMean (90% CI) (HPA axis; 10 mg): 69.9 (45.8, 98.1) <0.0001% | Total corticosteroids placebo corrected % of baseline, adjusted gMean (90% CI) (HPA axis; 10 mg): 169.9 (145.8, 198.1) % | Total corticosteroids 0 – 24h (day 1) gMean (gCV [%]) (HPA axis; 20 mg): 27240.6 (5.276) μg | Total corticosteroids % of baseline 0 – 24h (day 1)/-24 – 0h (day -1) gMean (gCV) (HPA axis; 20 mg): 174.7 (31.3) % | Total corticosteroids placebo corrected % change from baseline, adjusted gMean (90% CI) (HPA axis; 20 mg): 80.9 (54.9, 111.2) <0.0001% | Total corticosteroids placebo corrected % of baseline, adjusted gMean (90% CI) (HPA axis; 20 mg): 180.9 (154.9, 211.2) % | Total corticosteroids 0 – 24h (day 1) gMean (gCV [%]) (HPA axis; 40 mg): 24484.7 (17.661) μg | Total corticosteroids % of baseline 0 – 24h (day 1)/-24 – 0h (day -1) gMean (gCV) (HPA axis; 40 mg): 213.9 (24.4) % | Total corticosteroids placebo corrected % change from baseline, adjusted gMean (90% CI) (HPA axis; 40 mg): 86.6 (60.0, 117.5) <0.0001% | Total corticosteroids placebo corrected % of baseline, adjusted gMean (90% CI) (HPA axis; 40 mg): 186.6 (160.0, 217.5) % | Total corticosteroids 0 – 24h (day 1) gMean (gCV [%]) (HPA axis; 80 mg): 29884.0 (24.608) μg | Total corticosteroids % of baseline 0 – 24h (day 1)/-24 – 0h (day -1) gMean (gCV) (HPA axis; 80 mg): 189.7 (16.0) % | Total corticosteroids placebo corrected % change from baseline, adjusted gMean (90% CI) (HPA axis; 80 mg): 97.5 (69.1, 130.7) <0.0001% | Total corticosteroids placebo corrected % of baseline, adjusted gMean (90% CI) (HPA axis; 80 mg): 197.5% and 197.5 (169.1, 230.7) % | Total corticosteroids 0 – 24h (day 1) gMean (gCV [%]) (HPA axis; 160 mg): 25409.0 (28.223) μg | Total corticosteroids % of baseline 0 – 24h (day 1)/-24 – 0h (day -1) gMean (gCV) (HPA axis; 160 mg): 171.9 (13.1) % | Total corticosteroids placebo corrected % change from baseline, adjusted gMean (90% CI) (HPA axis; 160 mg): 72.8 (48.1, 101.6) <0.0001% | Total corticosteroids placebo corrected % of baseline, adjusted gMean (90% CI) (HPA axis; 160 mg): 172.8 (148.1, 201.6) % | Total corticosteroids 0 – 24h (day 1) gMean (gCV [%]) (HPA axis; 240 mg): 26872.4 (19.594) μg | Total corticosteroids % of baseline 0 – 24h (day 1)/-24 – 0h (day -1) gMean (gCV) (HPA axis; 240 mg): 174.5 (17.4) % | Total corticosteroids placebo corrected % change from baseline, adjusted gMean (90% CI) (HPA axis; 240 mg): 79.4 (53.7, 109.5) <0.0001% | Total corticosteroids placebo corrected % of baseline, adjusted gMean (90% CI) (HPA axis; 240 mg): 179.4 (153.7, 209.5) % | Total corticosteroids 0 – 24h (day 1) gMean (gCV [%]) (HPA axis; 360 mg): 26152.2 (30.046) μg | Total corticosteroids % of baseline 0 – 24h (day 1)/-24 – 0h (day -1) gMean (gCV) (HPA axis; 360 mg): 168.0 (28.0) % | Total corticosteroids placebo corrected % change from baseline, adjusted gMean (90% CI) (HPA axis; 360 mg): 73.8 (48.8, 102.9) <0.0001% | Total corticosteroids placebo corrected % of baseline, adjusted gMean (90% CI) (HPA axis; 360 mg): 173.8 (148.8, 202.9) % | Total urinary corticosteroid excretion (sum of UFF, UFE, aTHF, THF and THE), maximum across doses (HPA axis; placebo corrected % of baseline): up to 197.5%
